Measured values from patent publication US8946412B2 (priority 2009, dated 2015).
Structures can show the parent of a compound that is named as a salt. Where two headings read alike, the source gives them in different places.

Biological target: α7-subtype of nicotinic receptors (Rattus norvegicus, UniProt Q05941)
Experiment: biochemical
Type: binding

Sequence of α7-subtype of nicotinic receptors (Q05941 23-502): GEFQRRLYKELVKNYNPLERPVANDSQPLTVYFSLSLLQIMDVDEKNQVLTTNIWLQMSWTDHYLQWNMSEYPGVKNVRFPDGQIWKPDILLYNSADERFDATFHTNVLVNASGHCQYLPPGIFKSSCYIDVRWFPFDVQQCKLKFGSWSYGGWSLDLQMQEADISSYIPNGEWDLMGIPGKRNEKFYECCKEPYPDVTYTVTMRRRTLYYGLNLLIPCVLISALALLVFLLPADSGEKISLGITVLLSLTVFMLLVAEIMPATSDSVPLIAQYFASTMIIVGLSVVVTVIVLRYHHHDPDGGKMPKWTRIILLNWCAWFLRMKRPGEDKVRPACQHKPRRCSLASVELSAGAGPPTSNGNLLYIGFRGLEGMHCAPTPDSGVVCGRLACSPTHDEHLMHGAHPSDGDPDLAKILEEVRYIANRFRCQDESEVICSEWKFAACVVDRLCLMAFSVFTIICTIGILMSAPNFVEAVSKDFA

| Structure (SMILES) | IC50 [nM] | IC50 (rat brain, concentration inhibiting specific binding of 3H-α-bungarotoxin by 50%, read-out: IC50 Inhibition of 3H-α-Bungarotoxine Binding) [nM] |
| --- | --- | --- |
| FCCn1cccc1-c1nnc(N2CCN3CCC2CC3)o1 [Compound 1, 2-(1,4-Diazabicyclo[3.2.2]nonan-4-yl)-5-[1-(2-fluoroethyl)pyrrol-2-yl]-1,3,4-oxadiazole fumaric acid salt] | 11 |  |
| c1c[nH]c(-c2nnc(N3CCN4CCC3CC4)o2)c1 [Compound 3, 2-(1,4-Diazabicyclo[3.2.2]nonan-4-yl)-5-(1H-pyrrol-2-yl)-1,3,4-oxadiazole free base] |  | 17 |
